Here are results for three compounds from patent publication US12208097B2, “Protein kinase C inhibitors for treatment of uveal melanoma” (NOVARTIS AG, priority 2017, dated 2025).

Data set [1] has as its system UM cell lines. To be noted: with RITA and Topotecan; cited from earlier work.
Data set [2] deals with MP55 (GNA11mut/BAP1 null) uveal melanoma xenograft. The experiment in a line: Patient derived uveal melanoma xenograft model MP55. Format: in vivo, female SCID mice. The text has this:
The anti-tumor activity and tolerability of Compound […]196) and the MDM2 inhibitor (Compound III or its salt thereof) was investigated in vivo using two patient derived uveal melanoma xenograft models, MP46 (GNAQmut) and MP55 (GNA11mut/BAP1 null). MP46 and MP55 uveal melanoma tumors were established in female SCID mice by subcutaneous implantation of 3×3×3 mm tumor fragments into the flank of each mouse. When tumors reached approximately 100 mm^3, mice were randomized according to tumor volume into treatment groups (n=8-10/group). Test agents were administered orally once (QD) or twice daily (BID) at the dose levels indicated. Tumor volumes of treatment groups are plotted from the time the treatment groups were randomized, and dosing commenced.
(In general: In xenograft studies the graft and the host belong to different species.)

Data set [3] relates to MP46 (GNAQmut) uveal melanoma xenograft. The experiment in a line: Patient derived uveal melanoma xenograft model MP46. Format: in vivo, female SCID mice. To be noted: 35 days post dosing. The text has this:
The anti-tumor activity and tolerability of Compound I (i.e., LXS196) and the MDM2 inhibitor (Compound III or its salt thereof) was investigated in vivo using two patient derived uveal melanoma xenograft models, MP46 (GNAQmut) and MP55 (GNA11mut/BAP1 null).
MP46 and MP55 uveal melanoma tumors were established in female SCID mice by subcutaneous implantation of 3×3×3 mm tumor fragments into the flank of each mouse. When tumors reached approximately 100 mm^3, mice were randomized according to tumor volume into treatment groups (n=8-10/group). Test agents were administered orally once (QD) or twice daily (BID) at the dose levels indicated. Tumor volumes of treatment groups are plotted from the time the treatment groups were randomized, and dosing commenced.

Data set [4] has as its system phosphorylated myristoylated, alanine-rich C kinase substrate (pMARCKS). The experiment in a line: Phase I trial: target engagement in on-treatment tumor biopsies (pMARCKS). Format: in vivo, human. The text has this: (§1) LXS196 led to reduction of phosphorylated myristoylated, alanine-rich C kinase substrate (pMARCKS) and phosphorylated PKC delta (pPKC delta), evident of target engagement in on-treatment tumor biopsies.

Data set [5] has as its system phosphorylated PKC delta (pPKC delta). The experiment in a line: Phase I trial: target engagement in on-treatment tumor biopsies (pPKC delta). The data set is classed as in vivo, human.
Description: as §1

Data set [6] can be described thus: Phase I trial: pharmacokinetic (PK) studies. Format: in vivo, human. As for the experimental part: (§2) A phase 1, multicenter, open-label, single-arm study of Compound I was performed in patients with metastatic uveal melanoma. A Bayesian logistic regression model, employing the escalation with overdose control principle, was used to guide the dose escalation and to estimate the maximum tolerated dose (MTD)/recommended dose for expansion (RDE). Safety was described using incidence of adverse events (AEs) by relation and severity of the AE graded according to the Common Terminology Criteria for AEs (CTCAE, v4.03). Overall response rate was defined as per Response Evaluation Criteria in Solid Tumors (RECIST, v1.1).
as §1

The nature of data set [7]: Phase I trial of Compound I in patients with metastatic uveal melanoma: safety, DLT, MTD/RDE. Format: in vivo. As to the method:
as §2
(§3) Patients eligible for inclusion in this study have to meet all of the following key criteria: • Metastatic uveal melanoma (histologically or cytologically confirmed) that is judged to be progressive; patients may be treatment naive or have had any number of lines of prior therapy. • Measurable disease, defined as at least one lesion that can be accurately measured in at least one dimension (longest diameter to be recorded) as >20 mm with conventional techniques or as >10 mm with CT scan. • ECOG performance status ≤1
Patients eligible for this study must not meet any of the following criteria: • Malignant disease other than that being treated in this study • Symptomatic or untreated leptomeningeal or brain metastases or spinal cord compression. Treated brain metastases must have been stable for at least 1 month. • Impaired cardiac function or clinically significant cardiac diseases • Patients with abnormal laboratory values as defined by the protocol • Systemic anti-cancer therapy within 2 weeks of the first dose of study treatment. For cytotoxic agents that have major delayed toxicity, e.g. mitomycin C and nitrosoureas, and for anti-PD-1 or PD-L1 antibodies 4 weeks is indicated as the washout period. For patients receiving a CTLA-4 antagonist or vaccine as anticancer therapy, 6 weeks is indicated as the washout period. Patients must have recovered or stabilized from toxicities related to their previous treatment except for alopecia.
As of the data of Jun. 12, 2017, 55 patients received Compound I (i.e., LXS196) at doses ranging from 100 mg to 1000 mg once daily (QD; 38 patients or “pts”) and 200 mg to 400 mg twice daily (BID; 17 pts). Dose limiting toxicities (DLTs) were reported in 7 of 38 pts (QD schedule) and in 1 of 12 pts (BID schedule). The most common DLT was hypotension, manageable with LXS196 interruption and dose reduction. MTDs were determined at 500 mg QD and 400 mg BID. Due to better overall tolerability the RDE is 300 mg BID. Most common AEs (all grade, in ≥20% of pts) suspected related to LXS196 in pts across both schedules (n=55) were nausea (58.2%), diarrhea (32.7%), vomiting (25.5%), hypotension (25.5%), fatigue (20%) and asthenia (20%). The majority of GI and constitutional AEs were grade (gr) ½. Gr ¾ AEs suspected related to LXS196 were reported in 12 pts (21.8%), the most common being hypotension (10.9%). All other gr ¾ AEs occurred in ≤2 pts (3.6%) each.

Data set [8] relates to metastatic uveal melanoma. The experiment in a line: Phase I trial: tumor response per RECIST v1.1. To be noted: in 68 evaluable pts. The data set is classed as in vivo, human. As to the method:
as §2, §3
In 68 evaluable pts, 6 had confirmed partial responses (PR) per RECIST v 1.1 (300 mg QD, 500 mg QD, 200 mg BID, 2 at 300 mg BID, 400 mg BID). A further 45 pts had stable disease as best overall response. […]

Take `COc1ccc(C2=N[C@@H](c3ccc(Cl)cc3)[C@@H](c3ccc(Cl)cc3)N2C(=O)N2CCNC(=O)C2)c(OC(C)C)c1` [Nutlin-3]: in data set [1], the “Combination effect on growth inhibition” value was “synergistically”.
As a reminder, the T/C is the result in the treated group divided by that in the control group, in per cent. Take `COc1cc2c(cc1OC(C)C)[C@H](c1ccc(Cl)cc1)N(c1ccc(N(C)C[C@H]3CC[C@H](N4CCN(C)C(=O)C4)CC3)cc1)C(=O)C2` [Compound III, (S)-1-(4-chloro-phenyl)-7-isopropoxy-6-methoxy-2-(4-{methyl-[4-(4-methyl-3-oxo-piperazin-1-yl)-trans-cyclohexylmethyl]-amino}-phenyl)-1,4-dihydro-2H-isoquinolin-3-one]: in data set [2] (MP55, 100 mg/kg QD oral), the T/C came out at 20%. For the same compound, in data set [3] (MP46, 100 mg/kg QD oral), the “treatment/control (T/C)” value amounted to 39%.
By Tmax is commonly meant the time from dosing to the highest level. With `CC1(N)CCN(c2cccnc2NC(=O)c2nc(-c3ncccc3C(F)(F)F)cnc2N)CC1` [LXS196, 3-amino-N-(3-(4-amino-4-methylpiperidin-1-yl)pyridin-2-yl)-6-(3-(trifluoromethyl)pyridin-2-yl)pyrazine-2-carboxamide], the “Effect on pMARCKS” value in data set [4] is “reduction”. The “Effect on pPKC delta” value in data set [5] is reported as “reduction”. Further, in data set [6] (doses above 300 mg QD and 200 mg BID), the Exposure entry is given as “in the efficacious range from preclinical projections”. In addition, the half-life in data set [6] (human, in vivo, oral, consistent across different doses, read-out: terminal T½ (converted)) was approximately 10 h. The Tmax in data set [6] (human, in vivo, post dose, patients, oral) was approximately 1 h. The T/C in data set [2] (MP55, 120 mg/kg BID oral) was 20%. Also, in data set [7] (human, in vivo), the “AE asthenia, all grade, suspected related” value was 20%; the “AE diarrhea, all grade, suspected related” value was determined as 32.7%; the “AE fatigue, all grade, suspected related” value was 20%; the “AE hypotension, all grade, suspected related” value was found to be 25.5%. In data set [7] (human, in vivo), the “AE nausea, all grade, suspected related” value is 58.2%; the “AE vomiting, all grade, suspected related” value was 25.5%; the “All other gr ¾ AEs, each, number of patients” value was not above 2 pts; the “All other gr ¾ AEs, each, share of patients” value was not above 3.6%. Moreover, in data set [7] (human, in vivo), the “Gr ¾ AEs suspected related, number of patients” value is on record as 12 pts; the “Gr ¾ AEs suspected related, share of patients” value is given as 21.8%; the “Gr ¾ hypotension (most common gr ¾ AE)” value came out at 10.9%; the “Grade of the majority of GI and constitutional AEs” value is “grade (gr) ½”. In data set [7] (human, in vivo), the “Most common DLT” value is on record as “hypotension” and the “RDE (recommended dose for expansion)” value came out at 300 mg BID. For the same compound, in data set [7] (once daily schedule), the MTD is 500 mg QD. The MTD in data set [7] (twice daily schedule) is listed as 400 mg BID. Besides, the regression in data set [3] (MP46, 120 mg/kg BID oral) is 63%. Also, the “Stable disease as best overall response” value in data set [8] was 45 pts. The “Confirmed partial responses (PR) per RECIST v 1.1” value in data set [8] (300 mg QD, 500 mg QD, 200 mg BID, 2 at 300 mg BID, 400 mg BID) amounted to 6 pts.
